For test [1], the target named is T1, Mitogen-activated protein kinase kinase kinase 12 (Homo sapiens) (UniProt Q12852).
T1 sequence (whole entry): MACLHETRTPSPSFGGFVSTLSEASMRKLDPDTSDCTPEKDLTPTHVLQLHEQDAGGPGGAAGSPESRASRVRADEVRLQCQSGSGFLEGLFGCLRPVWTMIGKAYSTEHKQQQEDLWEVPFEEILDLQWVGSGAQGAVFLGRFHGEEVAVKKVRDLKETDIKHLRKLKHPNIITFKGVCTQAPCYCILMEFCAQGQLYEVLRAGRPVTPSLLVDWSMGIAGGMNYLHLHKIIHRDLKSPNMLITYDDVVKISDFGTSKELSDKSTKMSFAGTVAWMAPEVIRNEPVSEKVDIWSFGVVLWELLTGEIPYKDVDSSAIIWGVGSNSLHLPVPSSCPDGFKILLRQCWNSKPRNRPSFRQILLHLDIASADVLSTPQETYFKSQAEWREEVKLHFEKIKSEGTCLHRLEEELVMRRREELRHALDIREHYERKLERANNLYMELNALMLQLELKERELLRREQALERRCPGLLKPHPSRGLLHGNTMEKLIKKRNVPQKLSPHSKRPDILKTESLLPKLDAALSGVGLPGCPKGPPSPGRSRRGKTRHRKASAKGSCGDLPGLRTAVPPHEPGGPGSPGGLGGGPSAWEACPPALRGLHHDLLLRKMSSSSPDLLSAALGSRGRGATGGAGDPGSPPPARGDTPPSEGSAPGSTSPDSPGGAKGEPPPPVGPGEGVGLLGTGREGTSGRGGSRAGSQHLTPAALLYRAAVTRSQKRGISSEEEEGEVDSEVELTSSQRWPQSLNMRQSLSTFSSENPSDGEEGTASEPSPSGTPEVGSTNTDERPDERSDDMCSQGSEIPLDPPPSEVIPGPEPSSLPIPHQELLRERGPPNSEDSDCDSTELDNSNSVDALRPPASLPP
The settings on record: at 10 µM.

In test [2] the target is T2, Membrane-associated tyrosine- and threonine-specific cdc2-inhibitory kinase (Homo sapiens) (UniProt Q99640).
T2 sequence (whole entry): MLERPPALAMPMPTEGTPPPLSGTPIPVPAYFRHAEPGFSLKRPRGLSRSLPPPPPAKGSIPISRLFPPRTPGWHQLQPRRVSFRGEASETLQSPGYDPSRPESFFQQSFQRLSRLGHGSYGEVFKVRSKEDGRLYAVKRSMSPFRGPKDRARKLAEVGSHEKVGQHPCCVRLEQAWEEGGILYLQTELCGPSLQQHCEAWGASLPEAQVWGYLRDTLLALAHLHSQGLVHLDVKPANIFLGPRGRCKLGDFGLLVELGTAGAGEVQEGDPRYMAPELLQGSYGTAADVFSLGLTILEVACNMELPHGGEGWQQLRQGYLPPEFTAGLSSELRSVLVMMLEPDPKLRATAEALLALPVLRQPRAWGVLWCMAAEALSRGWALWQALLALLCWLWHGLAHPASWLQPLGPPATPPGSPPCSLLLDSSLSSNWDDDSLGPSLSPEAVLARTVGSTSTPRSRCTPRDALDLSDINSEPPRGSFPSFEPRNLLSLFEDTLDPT
The following applies: at 10 µM.

In test [3] the target is Glycogen synthase kinase-3 beta (Homo sapiens, UniProt P49841). Briefly: Selectivity interaction (KinomeScan (DiscoverX)) EUB0001079a GSK3B. The following applies: at 1 µM.
Test [4] addresses Casein kinase II subunit alpha' (Homo sapiens) (UniProt P19784). Nature of the test: Selectivity interaction (KinomeScan (DiscoverX)) EUB0000092b CSNK2A2. The following applies: at 10 µM.
In test [5] the target is Tyrosine-protein kinase Fer (Homo sapiens) (UniProt P16591). Briefly: Selectivity interaction (KinomeScan (DiscoverX)) EUB0001049a FER. The settings on record: at 1 µM.
Test [6] has as its target T3, Serine/threonine-protein kinase DCLK2 (Homo sapiens) (UniProt Q8N568).
T3 sequence (whole entry): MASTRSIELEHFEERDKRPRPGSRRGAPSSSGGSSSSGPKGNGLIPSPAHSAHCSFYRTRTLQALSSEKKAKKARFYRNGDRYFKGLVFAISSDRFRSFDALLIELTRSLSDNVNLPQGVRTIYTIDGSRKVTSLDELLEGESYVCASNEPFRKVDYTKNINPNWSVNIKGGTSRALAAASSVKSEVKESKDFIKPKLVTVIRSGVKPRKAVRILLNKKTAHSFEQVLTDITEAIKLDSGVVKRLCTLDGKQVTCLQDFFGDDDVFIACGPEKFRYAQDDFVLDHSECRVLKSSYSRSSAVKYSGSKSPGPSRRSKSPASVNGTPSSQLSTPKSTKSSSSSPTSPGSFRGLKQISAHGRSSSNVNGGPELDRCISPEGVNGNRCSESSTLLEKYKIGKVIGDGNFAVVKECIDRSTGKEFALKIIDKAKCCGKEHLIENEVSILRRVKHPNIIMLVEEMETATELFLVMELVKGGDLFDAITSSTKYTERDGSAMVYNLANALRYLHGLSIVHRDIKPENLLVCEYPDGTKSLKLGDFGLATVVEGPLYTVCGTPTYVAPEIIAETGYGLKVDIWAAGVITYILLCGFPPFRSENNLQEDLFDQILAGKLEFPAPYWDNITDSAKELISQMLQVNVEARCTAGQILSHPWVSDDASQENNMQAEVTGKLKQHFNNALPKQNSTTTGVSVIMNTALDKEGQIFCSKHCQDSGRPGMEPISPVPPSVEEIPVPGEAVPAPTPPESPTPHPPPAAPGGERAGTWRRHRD
Nature of the test: Selectivity interaction (KinomeScan (DiscoverX)) EUB0001049a DCLK2. The settings on record: at 1 µM.

The next test concerns the target Aurora kinase B (Homo sapiens, UniProt Q96GD4). Briefly: Selectivity interaction (Enzymatic assay) EUB0001550a AURKB.
Test [7] addresses Ribosomal protein S6 kinase alpha-1 (Homo sapiens, UniProt Q15418). Nature of the test: Selectivity interaction (KinomeScan (DiscoverX)) EUB0000311b RPS6KA1. The settings on record: at 1 µM.
Test [8] addresses STE20/SPS1-related proline-alanine-rich protein kinase (Homo sapiens) (UniProt Q9UEW8). Nature of the test: Selectivity interaction (Kinase panel (DSF assay)) EUB0001559a STK39.
The target of test [9] is Mitogen-activated protein kinase 11 (Homo sapiens) (UniProt Q15759). Nature of the test: Selectivity interaction (KinomeScan (DiscoverX)) EUB0000595a MAPK11. The settings on record: at 10 µM.

Broadly, the IC50 is the point on the concentration scale where inhibition reaches its midpoint. A higher IC50 goes with weaker potency in that assay.

Chain of Aurora kinase B (Q96GD4 whole entry): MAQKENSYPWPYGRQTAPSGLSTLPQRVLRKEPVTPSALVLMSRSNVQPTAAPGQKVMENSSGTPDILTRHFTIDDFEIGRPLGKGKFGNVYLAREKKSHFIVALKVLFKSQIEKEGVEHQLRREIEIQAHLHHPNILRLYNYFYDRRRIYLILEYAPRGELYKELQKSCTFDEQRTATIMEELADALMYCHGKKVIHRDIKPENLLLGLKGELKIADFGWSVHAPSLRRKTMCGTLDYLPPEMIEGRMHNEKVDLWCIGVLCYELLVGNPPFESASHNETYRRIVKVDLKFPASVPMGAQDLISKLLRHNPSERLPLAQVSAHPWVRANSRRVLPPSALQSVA
Chain of Ribosomal protein S6 kinase alpha-1 (Q15418 whole entry): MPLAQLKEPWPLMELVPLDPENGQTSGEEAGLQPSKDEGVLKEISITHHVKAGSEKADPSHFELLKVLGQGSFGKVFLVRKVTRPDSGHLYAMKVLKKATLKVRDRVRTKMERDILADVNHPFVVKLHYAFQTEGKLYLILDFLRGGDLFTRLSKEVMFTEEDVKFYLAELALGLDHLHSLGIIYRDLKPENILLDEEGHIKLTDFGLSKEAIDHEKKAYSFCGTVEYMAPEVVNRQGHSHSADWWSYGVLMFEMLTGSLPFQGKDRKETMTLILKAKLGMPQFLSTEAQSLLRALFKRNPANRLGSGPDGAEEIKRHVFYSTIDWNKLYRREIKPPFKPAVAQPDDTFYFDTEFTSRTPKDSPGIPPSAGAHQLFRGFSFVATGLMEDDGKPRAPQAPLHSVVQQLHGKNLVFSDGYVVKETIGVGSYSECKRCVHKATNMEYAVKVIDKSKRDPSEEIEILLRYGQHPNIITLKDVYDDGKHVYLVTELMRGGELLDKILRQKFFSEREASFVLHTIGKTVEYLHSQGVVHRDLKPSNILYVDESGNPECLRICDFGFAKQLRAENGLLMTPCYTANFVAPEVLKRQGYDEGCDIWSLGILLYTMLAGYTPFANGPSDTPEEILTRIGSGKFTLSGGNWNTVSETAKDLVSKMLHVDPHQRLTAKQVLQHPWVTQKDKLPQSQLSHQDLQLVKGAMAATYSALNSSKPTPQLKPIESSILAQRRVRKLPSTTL
Chain of Tyrosine-protein kinase Fer (Homo sapiens) (P16591 whole entry, looked up): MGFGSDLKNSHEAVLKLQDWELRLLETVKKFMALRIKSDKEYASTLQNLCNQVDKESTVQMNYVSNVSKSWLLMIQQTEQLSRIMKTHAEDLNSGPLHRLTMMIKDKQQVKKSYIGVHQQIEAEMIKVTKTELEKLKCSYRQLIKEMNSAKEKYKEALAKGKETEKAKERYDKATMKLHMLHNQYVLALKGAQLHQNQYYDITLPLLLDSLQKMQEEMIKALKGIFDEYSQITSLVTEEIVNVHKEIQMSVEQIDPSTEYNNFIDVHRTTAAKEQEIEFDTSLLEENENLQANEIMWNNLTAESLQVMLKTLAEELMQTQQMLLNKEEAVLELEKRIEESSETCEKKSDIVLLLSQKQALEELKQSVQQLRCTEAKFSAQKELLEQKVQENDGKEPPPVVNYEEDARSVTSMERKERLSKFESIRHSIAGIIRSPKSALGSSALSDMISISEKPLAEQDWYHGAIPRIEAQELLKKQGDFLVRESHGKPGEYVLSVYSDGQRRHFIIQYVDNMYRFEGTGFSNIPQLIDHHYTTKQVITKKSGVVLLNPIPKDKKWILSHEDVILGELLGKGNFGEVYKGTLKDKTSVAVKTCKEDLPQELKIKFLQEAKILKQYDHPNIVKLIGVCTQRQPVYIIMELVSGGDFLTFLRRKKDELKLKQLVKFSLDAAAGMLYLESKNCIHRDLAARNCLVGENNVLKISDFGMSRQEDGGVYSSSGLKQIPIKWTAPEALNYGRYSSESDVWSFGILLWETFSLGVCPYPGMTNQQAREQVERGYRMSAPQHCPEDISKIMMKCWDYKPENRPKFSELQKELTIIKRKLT
Chain of Glycogen synthase kinase-3 beta (P49841 whole entry, looked up): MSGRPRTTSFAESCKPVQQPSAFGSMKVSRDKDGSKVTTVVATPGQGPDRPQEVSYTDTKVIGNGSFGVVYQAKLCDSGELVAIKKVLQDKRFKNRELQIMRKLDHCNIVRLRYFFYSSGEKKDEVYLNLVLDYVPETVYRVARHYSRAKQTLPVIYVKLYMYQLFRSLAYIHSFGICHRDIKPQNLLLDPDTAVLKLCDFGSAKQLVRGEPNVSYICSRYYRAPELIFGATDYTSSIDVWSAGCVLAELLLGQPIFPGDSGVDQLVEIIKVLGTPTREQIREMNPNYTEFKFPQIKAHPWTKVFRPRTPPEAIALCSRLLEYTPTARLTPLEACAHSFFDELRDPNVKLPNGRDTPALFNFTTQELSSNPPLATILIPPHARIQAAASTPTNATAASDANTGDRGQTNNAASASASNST
Chain of Casein kinase II subunit alpha' (Homo sapiens) (P19784 whole entry, looked up): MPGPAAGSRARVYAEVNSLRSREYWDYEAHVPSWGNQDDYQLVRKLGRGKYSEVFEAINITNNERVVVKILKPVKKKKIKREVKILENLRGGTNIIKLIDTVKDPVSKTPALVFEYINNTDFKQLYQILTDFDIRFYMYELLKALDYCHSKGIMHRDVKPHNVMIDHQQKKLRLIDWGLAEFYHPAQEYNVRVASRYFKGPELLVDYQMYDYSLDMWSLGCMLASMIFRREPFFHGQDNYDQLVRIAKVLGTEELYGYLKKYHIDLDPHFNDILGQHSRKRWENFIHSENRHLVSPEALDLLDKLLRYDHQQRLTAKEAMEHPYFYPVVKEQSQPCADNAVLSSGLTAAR
Chain of Mitogen-activated protein kinase 11 (Homo sapiens) (Q15759 whole entry): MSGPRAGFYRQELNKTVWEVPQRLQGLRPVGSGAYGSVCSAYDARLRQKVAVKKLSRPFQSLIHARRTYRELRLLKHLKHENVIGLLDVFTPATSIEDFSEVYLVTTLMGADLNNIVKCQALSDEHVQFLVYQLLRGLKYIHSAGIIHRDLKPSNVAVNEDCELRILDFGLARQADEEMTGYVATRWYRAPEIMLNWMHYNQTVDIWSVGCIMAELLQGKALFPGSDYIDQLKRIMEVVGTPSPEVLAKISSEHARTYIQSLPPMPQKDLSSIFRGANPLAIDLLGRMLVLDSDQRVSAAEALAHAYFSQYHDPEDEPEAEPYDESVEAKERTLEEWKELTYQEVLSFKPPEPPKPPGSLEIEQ

Take `CCN(CC)CCCCNc1ncc2cc(-c3cc(OC)cc(OC)c3)c(NC(=O)NC(C)(C)C)nc2n1`: the % of control in test [1] and in test [2] was 100% each time. In turn, `Nc1cnc(N2CCc3cc(S(=O)(=O)Nc4c(F)cc(Cl)cc4F)cc(N4CCCC4=O)c32)nc1` [TP-020n] had a % of control in test [3] of 100%.

As to `CCC(=O)N1CCN(c2ccc(-n3c(=O)ccc4cnc5ccc(-c6cnc7ccccc7c6)cc5c43)cc2C(F)(F)F)CC1`, the % of control in [4] was 11%. Turning to `COc1cc(Nc2nc(C)cc(-c3cnn4nc(OC)ccc34)n2)cc(C(F)(F)F)c1`, the % of control in [5] was 93%; in test [6] it was 84%.

The compound `CN(C)CC#Cc1ccc2[nH]c3c(c2c1)-c1nc(N)ncc1CCC3` gave an IC50 against Aurora kinase B of 1400 nM.

In test [7], `CCc1ccccc1C(=O)Nc1n[nH]c2c(C)c(F)c(C3C(C#N)=C(C)N(C)C(C)=C3C#N)cc12` [BAY-3827] showed a % of control of 1.8%. In test [8], `CN(C(=O)c1cnn2cccnc12)c1cc2c(cc1N1CCOCC1)C(=O)N(C[C@@H](F)C(C)(C)O)C2` gave a dTM of 0.8 K. As to `COCC(=O)NC/C=C/c1ccc2ncnc(Nc3ccc(Oc4ccc(C)nc4)c(C)c3)c2c1` [CP-724714], the % of control in test [9] worked out at 100%.

(Values after ChEMBL document CHEMBL5465560, “Selectivity Literature for EUbOPEN Chemogenomic Library” (2024).)
